Experimental data reported in ChEMBL document CHEMBL1149839, “Alkaloids from Daphniphyllum oldhami” (2008).

Assays:
[1] = system: Platelet; experiment: Inhibition of PAF-induced platelet aggregation at 2.4 mmol/L; assay type: functional
[2] = system: Platelet; experiment: Inhibition of PAF-induced platelet aggregation at 1.0 mmol/L; assay type: functional

`CC(=O)Oc1ccccc1C(=O)O` [ASPIRIN] was tested, and the inhibition at 2400 µM [1] was 44.9%.
Work on `CC(=O)O[C@@H](C[C@]12[C@@H]3CCC[C@@]34CCC3[C@H](O)N4[C@@H]1[C@@H](C(C)C)CC[C@@]32C)C(=O)[C@]1(C)CO[C@@]2(C)CC[C@H]1O2` [DAPHNIOLDHANINE H] yielded an inhibition at 1000 µM [2] of 10.9%.
With `C[C@@H]1CN2[C@H]3[C@@H]4CCC[C@@H]4C(=O)C[C@@H]3[C@]3(C)OC(=O)CC[C@]34CC[C@H]1[C@H]24` [DAPHNIOLDHANINE J] the inhibition at 1000 µM [2] was 71.6%.
`CCC1=CC[C@]2(CO1)[C@@H]1CCC3=C4[C@H](CC3)[C@H](C(=O)OC)C[C@]42CN(C)C1` [DEHYDRODAPHNIGRACILINE] gave an inhibition at 1000 µM [2] of 13.4%.
